Measured values taken from patent US8470822B2, “Folate mimetics and folate-receptor binding conjugates thereof” (Purdue Research Foundation, priority 2001, dated 2013).
Values belong to the molecule of their own block, whether it stands above or below them.

What was measured:
[1] = biological target: T1, folate receptor on KB cells (Homo sapiens, UniProt P15328); test: Relative binding affinity: competition with 3H-folic acid for binding to KB cells; conditions: 100 nM 3H-folic acid, 15 minutes on ice; for relative binding activity compared to folic acid: folic acid set to 1; for EC50: read-out: EC50 (displacement of 3H-folic acid bound to folate receptor)
T1 construct: host or cells: KB cells (intact, trypsinized, suspended)
T1 sequence (P15328 25-234): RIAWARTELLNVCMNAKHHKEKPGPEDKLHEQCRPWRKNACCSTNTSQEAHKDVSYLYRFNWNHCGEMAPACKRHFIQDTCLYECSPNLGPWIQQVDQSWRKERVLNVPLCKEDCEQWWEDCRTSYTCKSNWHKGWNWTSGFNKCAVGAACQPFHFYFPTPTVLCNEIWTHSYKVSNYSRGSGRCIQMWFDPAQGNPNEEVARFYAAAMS
Method: Relative binding affinity. […] The relative affinity of various folate derivatives was determined according to the method described by Westerhoff et al. (Mol. Pharm., 1995, 48:459-471) with slight modification. Briefly, folate receptor-positive KB cells were gently trypsinized in 0.25% trypsin in phosphate-buffered saline (PBS) at room temperature for 3 minutes and then diluted in folate-free RPMI 1640 media (FFRPMI) (Gibco) supplemented with 10% heat-inactivated fetal calf serum. Following a 5 minute 800×g spin and one PBS wash, the final cell pellet was suspended in FFRPMI (no serum). […] Samples were centrifuged at 10,000×g for 5 minutes, cell pellets were suspended in buffer, transferred to individual vials containing 5 mL of scintillation cocktail, and then counted for radioactivity.
Binding activity. The binding activity of pteroyl hydrazide and pteroylhydrazido-BTCA-DAS was determined using the assay described in Example IV.

[2] = test system: folate-receptor-positive human KB cell tumor xenografts; test: Biodistribution of 111In radiotracer in KB tumor-bearing athymic mice after intravenous administration; format: in vivo
Method: Our primary animal model for evaluation of the biodistribution and pharmacokinetics of folate-receptor-targeted radiopharmaceuticals has been athymic mice bearing subcutaneously implanted folate-receptor-positive human KB cell tumors. […] After 3 weeks on folate-free diet, mouse serum folate levels drop to 25±7 nM from the initial 720±260 nM serum folate level when the animals are fed normal rodent chow. This dietary intervention is believed to be a reasonable manipulation of the animal model, since the mice would have serum folate levels only slightly higher than the folate concentration of normal human serum. Thus, in these mouse biodistribution studies the radiotracer is competing for tumor folate receptors with physiologically relevant concentrations of endogenous unlabeled serum folate.
The substantial retention of ^111In in the kidneys is fully consistent with the binding of ^111In-CYK4-013 to tissue folate receptors, since the renal proximal tubule is a known normal tissue site of folate receptor expression. […] The behavior of the ^111In-CYK4-013 radiopharmaceutical in this animal model (Table 2) is very similar to that observed for ^111In-DTPA-Folate (Table 3).
Results. Similar to ^111In-DTPA-Folate, ^111In-CYK4-013 selectively localized in the folate-receptor-positive tumor xenografts, and afforded prolonged tumor retention of ^111In (5.4±0.8; 5.5±1.1; and 3.6±0.6% ID/g at 1 hour, 4 hours, and 24 hours, respectively) (Table 2). […] Blockable binding was also observed in the kidneys, where the folate receptor occurs in the proximal tubules.

[3] = 4 Hours Post Injection BLOCKED, Folic Acid Dose 495 ± 79 μg/kg, n = 4

SMILES: Nc1nc(O)c2nc(CNc3ccc(C(=O)O[C@H](C(=O)O)c4ccccc4)cc3)cnc2n1 [ACBP, (S)-α-carboxybenzoyl pteroate]
- relative binding activity compared to folic acid [1]: 0.46
- EC50 [1]: 204 nM

- relative binding activity compared to folic acid [1]: 0.48
- EC50 [1]: 193 nM
SMILES: Nc1nc2ncc(CNc3ccc(C(=O)NC(C(=O)O)c4ccccn4)cc3)nc2c(=O)[nH]1 (stereo not drawn) [Pte-AP, N-pteroyl-2-amino-2-carboxymethylpyridine]

SMILES: NNC(=O)c1ccc(NCc2cnc3nc(N)nc(O)c3n2)cc1 [Pteroyl hydrazide, pteroyl hydrazide]
- relative binding activity compared to folic acid [1]: 0.74
- EC50 [1]: 94 nM

- Percentage of Injected 111In Dose Per Gram: Blood ([2]; 1 Hour Post Injection, n = 4): 0.14 ± 0.03 % ID/g
- Percentage of Injected 111In Dose Per Gram: Heart ([2]; 1 Hour Post Injection, n = 4): 2.3 ± 0.4 % ID/g
- Percentage of Injected 111In Dose Per Gram: Kidney ([2]; 1 Hour Post Injection, n = 4): 90 ± 9 % ID/g
- Percentage of Injected 111In Dose Per Gram: Liver & Gall Bladder ([2]; 1 Hour Post Injection, n = 4): 4.0 ± 1.5 % ID/g
- Percentage of Injected 111In Dose Per Gram: Lungs ([2]; 1 Hour Post Injection, n = 4): 1.3 ± 0.1 % ID/g
- Percentage of Injected 111In Dose Per Gram: Muscle ([2]; 1 Hour Post Injection, n = 4): 3.5 ± 0.8 % ID/g
- Percentage of Injected 111In Dose Per Gram: Spleen ([2]; 1 Hour Post Injection, n = 4): 0.36 ± 0.03 % ID/g
- Percentage of Injected 111In Dose Per Gram: Stomach, Intestines & Contents ([2]; 1 Hour Post Injection, n = 4): 1.0 ± 0.2 % ID/g
- Percentage of Injected 111In Dose Per Gram: Tumor ([2]; 1 Hour Post Injection, n = 4): 5.3 ± 0.4 % ID/g
- Tumor/blood ratio ([2]; 1 Hour Post Injection, n = 4): 38 ± 7
- Tumor/kidney ratio ([2]; 1 Hour Post Injection, n = 4): 0.060 ± 0.011
- Tumor/liver ratio ([2]; 1 Hour Post Injection, n = 4): 1.5 ± 0.5
- Tumor/muscle ratio ([2]; 1 Hour Post Injection, n = 4): 1.6 ± 0.3
- Tumor/kidney ratio ([2]; 4 Hours Post Injection BLOCKED, Folic Acid Dose 495 ± 79 μg/kg): 0.050 ± 0.023
- Percentage of Injected 111In Dose Per Gram: Kidney ([2]; 4 Hours Post Injection BLOCKED, Folic Acid Dose 495 ± 79 μg/kg, n = 3, anomalous animal excluded): 2.3 ± 1.0 % ID/g
- Percentage of Injected 111In Dose Per Gram: Blood [2, 3]: 0.029 ± 0.011 % ID/g
- Percentage of Injected 111In Dose Per Gram: Heart [2, 3]: 0.022 ± 0.010 % ID/g
- Percentage of Injected 111In Dose Per Gram: Liver & Gall Bladder [2, 3]: 0.12 ± 0.03 % ID/g
- Percentage of Injected 111In Dose Per Gram: Lungs [2, 3]: 0.065 ± 0.021 % ID/g
- Percentage of Injected 111In Dose Per Gram: Muscle [2, 3]: 0.023 ± 0.013 % ID/g
- Percentage of Injected 111In Dose Per Gram: Spleen [2, 3]: 0.060 ± 0.021 % ID/g
- Percentage of Injected 111In Dose Per Gram: Stomach, Intestines & Contents [2, 3]: 0.49 ± 0.20 % ID/g
- Percentage of Injected 111In Dose Per Gram: Tumor [2, 3]: 0.16 ± 0.07 % ID/g
- Tumor/blood ratio [2, 3]: 5.5 ± 0.8
- Tumor/liver ratio [2, 3]: 1.4 ± 0.4
- Tumor/muscle ratio [2, 3]: 8.4 ± 3.8
- Percentage of Injected 111In Dose Per Gram: Blood ([2]; 4 Hours Post Injection, n = 4): 0.064 ± 0.007 % ID/g
- Percentage of Injected 111In Dose Per Gram: Heart ([2]; 4 Hours Post Injection, n = 4): 2.0 ± 0.3 % ID/g
- Percentage of Injected 111In Dose Per Gram: Kidney ([2]; 4 Hours Post Injection, n = 4): 85 ± 12 % ID/g
- Percentage of Injected 111In Dose Per Gram: Liver & Gall Bladder ([2]; 4 Hours Post Injection, n = 4): 2.2 ± 0.4 % ID/g
- Percentage of Injected 111In Dose Per Gram: Lungs ([2]; 4 Hours Post Injection, n = 4): 1.1 ± 0.3 % ID/g
- Percentage of Injected 111In Dose Per Gram: Muscle ([2]; 4 Hours Post Injection, n = 4): 2.9 ± 0.7 % ID/g
- Percentage of Injected 111In Dose Per Gram: Spleen ([2]; 4 Hours Post Injection, n = 4): 0.35 ± 0.11 % ID/g
- Percentage of Injected 111In Dose Per Gram: Stomach, Intestines & Contents ([2]; 4 Hours Post Injection, n = 4): 1.0 ± 0.2 % ID/g
- Percentage of Injected 111In Dose Per Gram: Tumor ([2]; 4 Hours Post Injection, n = 4): 6.8 ± 1.2 % ID/g
- Tumor/blood ratio ([2]; 4 Hours Post Injection, n = 4): 106 ± 15
- Tumor/kidney ratio ([2]; 4 Hours Post Injection, n = 4): 0.080 ± 0.012
- Tumor/liver ratio ([2]; 4 Hours Post Injection, n = 4): 3.3 ± 1.1
- Tumor/muscle ratio ([2]; 4 Hours Post Injection, n = 4): 2.5 ± 0.9
SMILES: Nc1nc2ncc(CNc3ccc(C(=O)N[C@@H](CCC(=O)NCCNC(=O)CN(CCN(CCN(CC(=O)[O-])CC(=O)[O-])CC(=O)[O-])CC(=O)[O-])C(=O)O)cc3)nc2c(=O)[nH]1.[111In] [^111In-DTPA-Folate, reference compound]
